Where two headings read alike, the source gives them in different places.
Key:
[1] = test system: LPS-induced nitric oxide production in murine macrophage J774A.1 cells; experiment: NO inhibition (Griess nitrite assay) in LPS-stimulated murine macrophage J774A.1 cells; type: cell-based; conditions: Mus musculus, J774.A1, 10 ng/ml LPS, 16 h
Procedure: Assessment of neutralization of LPS toxicity: NO inhibition activity. Nitric oxide production is measured as total nitrite in murine macrophage J774A.1 cells using the Griess assay^70 as described previously.^71 J774A.1 cells are plated at ˜10^5/ml in a volume of 40 μl/well, in 384-well, flat-bottomed, cell culture treated microtiter plates and subsequently stimulated with 10 ng/ml lipopolysaccharide (LPS). Concurrent to LPS stimulation, serially diluted concentrations of test compounds are added to the cell medium and left to incubate for 16 h. Polymyxin B is used as reference compound in each plate. Positive-(LPS stimulation only) and negative-controls (J774A.1 medium only) are included in each experiment. Nitrite concentrations are measured by adding 40 μl of supernatant to equal volumes of Griess reagents (50 μl/well; 0.1% NED solution in ddH2O and 1% sulfanilamide, 5% phosphoric acid solution in ddH2O) and incubating for 15 minutes at room temperature in the dark. Absorbance at 535 nm is measured using a Molecular Devices Spectramax M2 multifunction plate reader (Sunnyvale, Calif.). Nitrite concentrations are interpolated from standard curves obtained from serially diluted sodium nitrite standards. IC50 values are determined for compounds that neutralize LPS inhibit NO production in a dose-dependent manner (Tables A-F). Results in this assay parallel those in the binding assay.

[2] = test system: LPS-induced NF-κB induction in human embryonic kidney 293 cells cotransfected with TLR4, CD14 and MD2; experiment: Inhibition of LPS induction of NF-κB (seAP reporter) in HEK 293 cells cotransfected with TLR4, CD14 and MD2; type: cell-based; conditions: for IC50: inhibition of LPS-induced NF-κB induction, HEK 293 TLR4/CD14/MD2 reporter cells, read-out: NFκβ inhibition IC50 value; for activity in words (LPS binding / cell-based cytokine inhibition, comment on Table F): qualitative comparison with spermine-sulfonamide counterparts
Excerpt: Assessment of Inhibition of Cytokine Induction (NF-κB): The inhibition of induction of NF-κB (a key transcripitional activator of the innate immune system, leading to uncontrolled cytokine release^72,73 which ultimately leads to multiple organ failure and the shock syndrome) is quantified using human embryonic kidney 293 cells cotransfected with TLR4 (LPS receptor), CD14 and MD2 (co-receptors), available from InvivoGen, Inc. (HEK-Bluetm, San Diego, Calif.), as per protocols provided by the vendor. Stable expression of secreted alkaline phosphatase (seAP) under control of NF-κB/AP-1 promoters is inducible by LPS, and extracellulare seAP in the supernatant is proportional to NF-κB induction. seAP is assayed spectrophotometrically using an alkaline phosphatase-specific chromogen at 620 nm using a rapid-throughput, automated protocol employing a Bio-Tek P2000 liquid handler. Results showing the ability of polycationic sulfonamide compounds to inhibit the induction of NF-κB by LPS are shown in Tables A-F.

[3] = Rapid-throughput BODIPY-TR cadaverine (BC) fluorescence displacement assay for binding affinity to LPS; conditions: half-maximal effective displacement of BODIPY-TR cadaverine probe from LPS; 50 mM Tris buffer, pH 7.4; read-out: Binding affinity (BC displacement) ED50 value
Procedure: Rapid-throughput Fluorescence Displacement Assay for quantifying binding affinities to LPS. […] Polymyxin B (PMB), a peptide antibiotic known to bind and neutralize LPS^65 serves as the positive control and reference compound for every plate, enabling the quantitative assessment of repeatability and reproducibility (CV and Z′ factors) for the assay. Automated liquid handling is performed on a Precision 2000 automated microplate pipetting system, programmed using the Precision Power software, Bio-Tek Instruments Inc., VT, USA. Results are reported as half-maximal effective displacement of probe (ED50) (Tables A-F). In all experiments, Polymyxin B (PMB), a decapeptide antibiotic, known to bind and neutralize LPS,^66-69 is used as a reference compound.

| Compound | IC50 [1] | IC50 ([2]; Homo sapiens, HEK293) | EC50 [3] | activity in words (LPS binding / cell-based cytokine inhibition, comment on Table F) [2] | IC50 [2] |
| --- | --- | --- | --- | --- | --- |
| CCCCCCCCS(=O)(=O)NCCCNCCCCNCCCN [MQTS 2351, N^1-Octanylsulfonyl-1,14-diamino-5,10-diazabutadecane] | 1.44 µM | 33.3 µM | 6.64 µM | – | – |
| CCCCCCCCCCCCS(=O)(=O)NCCCNCCCCNCCCN [MQTS 2357, N^1-Dodecanylsulfonyl-1,14-diamino-5,10-diazabutadecane] | 1.34 µM | 0.41 µM | 2.69 µM | – | – |
| CCCCCCCCCCCCCCCCS(=O)(=O)N(CCCN)CCCCNCCCN [MQTS 2363] | 13.7 µM | 2.68 µM | 45.6 µM | greatly diminished activity | – |
| CCCCCCCCCCCCCCCCS(=O)(=O)NCCCCCCCCCCCCN [MQTS 2369] | – | 200 µM | – | much lower activities | – |
| CCCCCCCCCCCCCCCCS(=O)(=O)NCCCOCCCCOCCCN [MQTS 2370] | 30.9 µM | 22.4 µM | > 5000 µM | much lower activities | – |
| CCCCCCCCCCS(=O)(=O)NCCCNCCCCNCCCN [MQTS 2377, N^1-Decanylsulfonyl-1,14-diamino-5,10-diazabutadecane] | 4.42 µM | 0.5 µM | 3.7 µM | – | – |
| CCCCCCCCCCCCCCCCCCS(=O)(=O)NCCCNCCCCNCCCN [MQTS 2378] | 0.48 µM | 0.36 µM | 6.01 µM | – | – |
| CCCCCCCCS(=O)(=O)NCCCNCCCNCCCCNCCCN [MQTS 2379, N^1-Octanylsulfonyl-1,18-diamino-5,9,14-triazaoctadecane] | 6.47 µM | 0.816 µM | 2.84 µM | – | – |
| CCCCCCCCCCCCCCCCCCS(=O)(=O)NCCCNCCCNCCCCNCCCN [MQTS 2380, N^1-Octadecanylsulfonyl-1,18-diamino-5,9,14-triazaoctadecane] | 0.23 µM | 1.06 µM | 4.45 µM | – | – |
| CCCCCCCCCCS(=O)(=O)NCCCNCCCNCCCCNCCCN [MQTS 2381] | 1.09 µM | 0.278 µM | 2.89 µM | – | – |
| CCCCCCCCCCCCS(=O)(=O)NCCCNCCCNCCCCNCCCN [MQTS 2382, N^1-Dodecanylsulfonyl-1,18-diamino-5,9,14-triazaoctadecane] | 0.39 µM | 0.19 µM | 2.92 µM | – | – |
| CCCCCCCCCCCCS(=O)(=O)NCCCN(CCCNCCCNCCCCNCCCN)CCCNS(=O)(=O)CCCCCCCCCCCC [MQTS 2390, N^1-Bis[N-dodecanylsulfonyl-3-aminopropyl]-1,18-diamino-5,9,14-triazaoctadecane] | 0.51 µM | 16.4 µM | 6.82 µM | – | – |
| CCCCCCCCCCCCCCCCS(=O)(=O)NCCCN(CCCNCCCNCCCCNCCCN)CCCNS(=O)(=O)CCCCCCCCCCCCCCCC [MQTS 2391] | 5.2 µM | 2.68 µM | 9.31 µM | – | – |
| CCCCCCCCCCCCCCCCCCS(=O)(=O)NCCCN(CCCNCCCCNCCCN)CCCNS(=O)(=O)CCCCCCCCCCCCCCCCCC [MQTS 2394, N^1-Bis[N-octadecanylsulfonyl-3-aminopropyl]-1,14-diamino-5,10-diazabutadecane] | 2330 µM | 64 µM | 28.3 µM | – | – |
| CCCCCCCCCCCCCCCCS(=O)(=O)NCCCN(CCCNCCCCNCCCN)CCCNS(=O)(=O)CCCCCCCCCCCCCCCC [MQTS 2396] | 15.1 µM | 4.85 µM | 26.4 µM | – | – |
| CCCCCCCCCCCCCCCCCCS(=O)(=O)NCCCNCCCCNCCCCNCCCCNCCCNS(=O)(=O)CCCCCCCCCCCCCCCCCC [MQTS 2401, N^1,N^14-Bis[N-octadecanylsulfonyl-3-aminopropyl]-1,14-diamino-5,10-diazabutadecane] | – | – | > 5000 µM | – | 6.49 µM |
| CCCCCCCCS(=O)(=O)NCCCN(CCCNCCCCNCCCN)CCCNS(=O)(=O)CCCCCCCC [MQTS 2406, N^1-Bis[N-octanylsulfonyl-3-aminopropyl]-1,14-diamino-5,10-diazabutadecane] | – | 0.669 µM | 2.17 µM | – | – |

| Compound | IC50 [1] | IC50 ([2]; Homo sapiens, HEK293) | EC50 [3] | activity in words (LPS binding / cell-based cytokine inhibition, comment on Table F) [2] | IC50 [2] |
| --- | --- | --- | --- | --- | --- |
| CCCCCCCCCCCCCCCCS(=O)(=O)NCCCN(CCCN)CCCN [MQTS 2409] | – | 9.19 µM | 12.3 µM | – | – |
| CCCCCCCCCCCCCCCCS(=O)(=O)NCCN(CCN)CCN [MQTS 2410] | – | 0.379 µM | 3.54 µM | – | – |
| CCCCCCCCS(=O)(=O)NCCNCCCNCCN [MQTS 2411] | – | 13.8 µM | 10.6 µM | – | – |
| CCCCCCCCCCCCS(=O)(=O)NCCNCCCNCCN [MQTS 2412] | – | 0.686 µM | 4.77 µM | – | – |
| CCCCCCCCS(=O)(=O)NCCCNCCCNCCCN [MQTS 2413] | – | 5.56 µM | 6.7 µM | – | – |
| CCCCCCCCCCCCS(=O)(=O)NCCCNCCCNCCCN [MQTS 2414] | – | 0.363 µM | 4.27 µM | – | – |
| CCCCCCCCS(=O)(=O)NCCCNC/C=C/CNCCCN [MQTS 2415] | – | 12.7 µM | 12.5 µM | – | – |
| CCCCCCCCCCCCS(=O)(=O)NCCCNC/C=C/CNCCCN [MQTS 2416] | – | 0.522 µM | 3.83 µM | active | – |
| CCCCCCCCCCS(=O)(=O)NCCCN(CCCNCCCNCCCCNCCCN)CCCNS(=O)(=O)CCCCCCCCCC [MQTS 2417, N^1-Bis[N-decanylsulfonyl-3-aminopropyl]-1,18-diamino-5,9,14-triazaoctadecane] | 0.43 µM | 2.2 µM | 1.16 µM | – | – |
| CCCCCCCC(=O)NCCCN(CCCNCCCNCCCCNCCCN)CCCNC(=O)CCCCCCC [MQTS 2418] | 2.48 µM | 3.17 µM | 1 µM | greatly diminished activity | – |
| CCCCCCCCCCS(=O)(=O)NCCCN(CCCNCCCCNCCCN)CCCNS(=O)(=O)CCCCCCCCCC [MQTS 2419, N^1-Bis[N-decanylsulfonyl-3-aminopropyl]-1,14-diamino-5,10-diazabutadecane] | 1.1 µM | 5.17 µM | 2.4 µM | – | – |
| CCCCCCCCCCCCS(=O)(=O)NCCCN(CCCNCCCCNCCCN)CCCNS(=O)(=O)CCCCCCCCCCCC [MQTS 2420, N^1-Bis[N-dodecanylsulfonyl-3-aminopropyl]-1,14-diamino-5,10-diazabutadecane] | 2.27 µM | 13.2 µM | 3.98 µM | – | – |
| CCCCCCCC(=O)NCCCN(CCCNCCCCNCCCN)CCCNC(=O)CCCCCCC [MQTS 2421] | 9.02 µM | 9.76 µM | 1.32 µM | greatly diminished activity | – |
| N^1,N^14-Bis[N-decanylsulfonyl-3-aminopropyl]-1,14-diamino-5,10-diazabutadecane [MQTS 2398] | – | – | 13.5 µM | – | 4.2 µM |
| N^1,N^14-Bis[N-dodecanylsulfonyl-3-aminopropyl]-1,14-diamino-5,10-diazabutadecane [MQTS 2399] | – | – | 55.2 µM | – | 10.3 µM |
| N^1,N^14-Bis[N-hexadecanylsulfonyl-3-aminopropyl]-1,14-diamino-5,10-diazabutadecane [MQTS 2400] | – | – | 133 µM | – | 11.7 µM |
| N^1,N^14-Bis[N-octanylsulfonyl-3-aminopropyl]-1,14-diamino-5,10-diazabutadecane [MQTS 2397] | – | – | 2.6 µM | – | 0.607 µM |
